Reference: patent publication US20260007678A1, “COMBINATION OF ALLOSTERIC AND ORTHOSTERIC EGFR INHIBITORS FOR THE TREATMENT OF CANCER” (Hoffmann-La Roche Inc., priority 2022, published 2026)
One block for each molecule: values may come before it.

Columns and labels:
[1] = target: T1, EGFR kinase domain (L858R) (Homo sapiens, UniProt P00533, L858R); experiment: Binding kinetics measured by stopped-flow fluorescence
T1 construct: osimertinib reacts faster with the EGFR kinase domain (L858R)
Excerpt: FIG. 3 (A) Binding kinetics measured by stopped-flow fluorescence. […].

EGFR^L858R = target: T2, EGFR^L858R (Homo sapiens, UniProt P00533, L858R); experiment: HTRF cellular assay in human cancer cells H3255; type: cell-based; conditions: read-out: IC50 H3255 EGFR LR
T2 construct: expressing WT EGFR, EGFR^L858R or EGFR^L858R/T790M; host or cells: NCI-H3255
T2 sequence (P00533 25-1210 L858R): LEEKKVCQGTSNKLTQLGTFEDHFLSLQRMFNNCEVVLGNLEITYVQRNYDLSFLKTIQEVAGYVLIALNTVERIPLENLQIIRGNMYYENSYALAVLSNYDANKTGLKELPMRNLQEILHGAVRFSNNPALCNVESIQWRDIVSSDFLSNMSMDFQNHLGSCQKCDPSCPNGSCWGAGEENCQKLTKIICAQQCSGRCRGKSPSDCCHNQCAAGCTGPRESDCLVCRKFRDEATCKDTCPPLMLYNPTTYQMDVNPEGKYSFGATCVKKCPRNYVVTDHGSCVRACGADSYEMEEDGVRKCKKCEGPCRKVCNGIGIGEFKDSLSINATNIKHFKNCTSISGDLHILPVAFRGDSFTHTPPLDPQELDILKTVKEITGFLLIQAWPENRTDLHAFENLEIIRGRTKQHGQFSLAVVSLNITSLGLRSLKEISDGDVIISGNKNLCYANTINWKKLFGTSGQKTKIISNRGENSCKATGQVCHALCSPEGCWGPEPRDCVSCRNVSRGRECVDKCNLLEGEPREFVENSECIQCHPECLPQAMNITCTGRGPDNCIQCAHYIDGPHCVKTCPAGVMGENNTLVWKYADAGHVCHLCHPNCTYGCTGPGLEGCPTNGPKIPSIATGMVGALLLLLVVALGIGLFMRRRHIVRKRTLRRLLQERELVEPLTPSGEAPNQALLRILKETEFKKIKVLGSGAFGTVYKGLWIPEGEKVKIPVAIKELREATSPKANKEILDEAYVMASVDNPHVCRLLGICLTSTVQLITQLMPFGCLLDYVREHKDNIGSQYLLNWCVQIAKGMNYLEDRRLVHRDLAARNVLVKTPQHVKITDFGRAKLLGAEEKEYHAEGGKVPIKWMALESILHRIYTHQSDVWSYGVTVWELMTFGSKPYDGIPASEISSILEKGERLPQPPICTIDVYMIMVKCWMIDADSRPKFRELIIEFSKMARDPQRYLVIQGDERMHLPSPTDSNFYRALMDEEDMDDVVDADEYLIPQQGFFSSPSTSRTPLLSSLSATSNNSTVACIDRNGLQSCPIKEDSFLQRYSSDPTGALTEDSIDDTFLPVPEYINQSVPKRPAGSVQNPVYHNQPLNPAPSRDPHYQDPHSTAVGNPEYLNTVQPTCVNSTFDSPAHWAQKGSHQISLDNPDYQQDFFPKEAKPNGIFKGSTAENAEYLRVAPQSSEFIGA
Method: (§1) NCI-H3255 cells were obtained from the NCI (#CVCL_6831). Cells were maintained in a humidified incubator at 37° C. and 5% CO2. […] Verification of cell line identities and absence of cross-contaminations by other cell lines was performed through Short Tandem Repeats-PCR analysis (only human cell lines) and MALDI-TOF analysis. […] All cell lines were used for no more than 20 passages after thawing for all described experiments.
Control wells with medium only were also prepared. […] Plates were incubated at 37° C. for 4 hours. […] The cells were eventually lysed in HTRF lysis buffer provided by the kit (see below) and stored at −80° C. until further use. HTRF assay for pEGFR (CisBio #64EG1PEH) or pERK (CisBio #64AERPEH) was then performed according to the manufacturer's instructions.

EGFR WT [2] = target: T3, EGFR WT (Homo sapiens, UniProt P00533); experiment: HTRF cellular assay in human cancer cells H2073; type: cell-based; design: expressing WT EGFR; host or cells: NCI-H2073; conditions: EGF 25 ng/ml
T3 sequence (P00533 25-1210): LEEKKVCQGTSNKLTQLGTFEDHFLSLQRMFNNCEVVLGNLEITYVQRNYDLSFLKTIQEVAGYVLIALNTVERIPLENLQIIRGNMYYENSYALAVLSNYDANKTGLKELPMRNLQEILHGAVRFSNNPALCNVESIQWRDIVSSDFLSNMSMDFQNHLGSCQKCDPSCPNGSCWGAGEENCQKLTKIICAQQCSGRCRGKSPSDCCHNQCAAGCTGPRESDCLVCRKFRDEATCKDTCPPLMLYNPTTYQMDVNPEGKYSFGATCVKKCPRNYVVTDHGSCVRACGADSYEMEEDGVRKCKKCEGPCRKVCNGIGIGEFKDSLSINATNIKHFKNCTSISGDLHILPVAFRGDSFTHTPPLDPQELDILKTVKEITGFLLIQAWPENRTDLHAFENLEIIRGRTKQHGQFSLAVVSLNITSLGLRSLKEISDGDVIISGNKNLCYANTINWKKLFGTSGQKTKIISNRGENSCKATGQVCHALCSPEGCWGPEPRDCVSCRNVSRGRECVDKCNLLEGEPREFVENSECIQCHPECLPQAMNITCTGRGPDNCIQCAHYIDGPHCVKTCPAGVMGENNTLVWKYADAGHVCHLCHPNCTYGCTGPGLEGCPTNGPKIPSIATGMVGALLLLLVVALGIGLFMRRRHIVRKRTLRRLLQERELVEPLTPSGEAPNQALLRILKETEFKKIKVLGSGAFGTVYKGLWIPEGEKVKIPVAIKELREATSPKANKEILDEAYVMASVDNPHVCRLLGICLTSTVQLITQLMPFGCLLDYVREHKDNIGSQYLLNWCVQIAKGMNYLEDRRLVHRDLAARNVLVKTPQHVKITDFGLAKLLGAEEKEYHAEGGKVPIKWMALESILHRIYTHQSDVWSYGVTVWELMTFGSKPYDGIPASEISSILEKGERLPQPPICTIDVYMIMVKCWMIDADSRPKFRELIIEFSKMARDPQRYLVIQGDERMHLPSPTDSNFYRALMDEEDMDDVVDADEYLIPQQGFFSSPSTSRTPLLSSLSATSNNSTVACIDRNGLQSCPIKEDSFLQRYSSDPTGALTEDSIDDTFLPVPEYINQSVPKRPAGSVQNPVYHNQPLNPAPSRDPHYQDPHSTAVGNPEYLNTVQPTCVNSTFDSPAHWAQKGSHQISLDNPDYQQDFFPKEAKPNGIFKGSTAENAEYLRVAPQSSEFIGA

[3] = In vitro metabolic stability, intrinsic clearance in hepatocytes; type: in vitro ADME; conditions: primary pooled cryopreserved hepatocytes in suspension
Method: The in vitro metabolic stability was assessed in human and […] short-term hepatocytes suspensions. Primary pooled cryopreserved hepatocytes obtained from BioIVT (Westbury, NY, USA) were thawed and suspended in William's E medium supplemented with 10% fetal bovine serum. The suspended hepatocytes were pre-incubated at 37° C. (5% CO2) and reactions were initiated by adding the compound. Final assay conditions were 1 μM compound (final assay solvent concentration 0.01% DMSO), 1×10^6 hepatocytes/mL incubate. The mixtures were then incubated up to 2 hours at 37° C.′ (5% CO2). The reactions were stopped by placing samples on dry ice before storage at −80° C. until analysis by LC-MS/MS. The natural logarithm of the percentage initial drug concentration in the incubation samples was plotted against time and a linear regression analysis was applied using GraphPad Prism version 7.04 for Windows (GraphPad Software, La Jolla, CA) to define the slope. The in vitro hepatocyte intrinsic hepatocyte clearance rate (CLint) was calculated from the slope of the linear regression,-slope, with V representing the volume of the incubation in μL and N as the number of hepatocytes per incubation as detailed in Equation X: […]

EGFR^L858R/T790M = target: T4, EGFR^L858R/T790M (Homo sapiens, UniProt P00533, L858R/T790M); experiment: HTRF cellular assay in human cancer cells H1975; type: cell-based; conditions: read-out: IC50 H1975 EGFR LRTM
T4 construct: expressing WT EGFR, EGFR^L858R or EGFR^L858R/T790M; host or cells: NCI-H1975
T4 sequence (P00533 25-1210 T790M/L858R): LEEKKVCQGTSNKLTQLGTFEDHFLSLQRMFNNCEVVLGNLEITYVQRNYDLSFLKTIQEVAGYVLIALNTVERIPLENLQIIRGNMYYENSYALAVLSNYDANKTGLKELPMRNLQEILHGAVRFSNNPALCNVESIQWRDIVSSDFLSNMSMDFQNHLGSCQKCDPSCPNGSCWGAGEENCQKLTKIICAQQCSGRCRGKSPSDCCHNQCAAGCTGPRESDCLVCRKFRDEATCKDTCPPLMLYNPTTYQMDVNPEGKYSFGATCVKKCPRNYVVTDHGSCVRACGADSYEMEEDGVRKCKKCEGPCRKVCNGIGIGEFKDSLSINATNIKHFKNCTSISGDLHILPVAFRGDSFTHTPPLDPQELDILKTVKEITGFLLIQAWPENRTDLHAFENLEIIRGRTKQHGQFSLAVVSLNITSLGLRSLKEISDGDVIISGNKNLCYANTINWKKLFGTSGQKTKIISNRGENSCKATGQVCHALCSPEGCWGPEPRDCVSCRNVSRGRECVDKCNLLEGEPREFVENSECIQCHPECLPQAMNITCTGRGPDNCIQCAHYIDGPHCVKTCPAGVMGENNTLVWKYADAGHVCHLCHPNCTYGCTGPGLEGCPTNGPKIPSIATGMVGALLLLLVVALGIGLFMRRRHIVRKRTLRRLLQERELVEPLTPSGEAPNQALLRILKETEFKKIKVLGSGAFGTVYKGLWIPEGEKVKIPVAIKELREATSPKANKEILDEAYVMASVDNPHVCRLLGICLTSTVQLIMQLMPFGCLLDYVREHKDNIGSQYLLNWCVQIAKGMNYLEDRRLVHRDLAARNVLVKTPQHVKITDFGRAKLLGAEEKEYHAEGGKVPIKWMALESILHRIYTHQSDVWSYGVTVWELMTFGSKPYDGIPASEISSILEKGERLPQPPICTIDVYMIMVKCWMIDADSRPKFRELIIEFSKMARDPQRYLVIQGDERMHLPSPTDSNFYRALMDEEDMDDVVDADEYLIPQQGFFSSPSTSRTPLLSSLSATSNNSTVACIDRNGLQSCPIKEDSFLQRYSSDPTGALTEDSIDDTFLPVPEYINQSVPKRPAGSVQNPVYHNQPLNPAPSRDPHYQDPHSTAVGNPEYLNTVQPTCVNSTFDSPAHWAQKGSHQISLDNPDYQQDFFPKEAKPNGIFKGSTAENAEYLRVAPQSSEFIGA

[4] = system: Ba/F3 EGFR^L858R/C797S allograft; experiment: In vivo efficacy, Ba/F3 EGFR^L858R/C797S allograft; design: species or system mice; conditions: Example 6 at 10 mpk, Example 3 at 30 mpk, BID po
[5] = target: Ba/F3 cell lines stably expressing EGFR^L858R/C797S (Homo sapiens, UniProt P00533, C797S/L858R, cells depend on it); experiment: Cell viability assay (cell titer glo); type: cell-based; conditions: 72 hours, first value of IC50/IC90
[6] = system: NCI-H1975 NSCLC-derived tumors (EGFR^L858R/T790M xenograft); experiment: In vivo efficacy, NCI-H1975 xenograft; conditions: alone and in combination with osimertinib, mice
EGFR WT [7] = target: T3, EGFR WT; experiment: HTRF cellular assay in human cancer cells A431; type: cell-based; design: expressing WT EGFR, EGFR^L858R or EGFR^L858R/T790M; #CRL-1555 (A431); host or cells: NCI-H2073; A431; conditions: EGF 25 ng/ml
[8] = target: Ba/F3 cell lines stably expressing EGFR^L858R/T790M/C797S (Homo sapiens, UniProt P00533, T790M/C797S/L858R, cells depend on it); experiment: Cell viability assay (cell titer glo); type: cell-based
Ba/F3 cell lines stably expressing EGFR^L858R/T790M/C797S, sequence (P00533 whole entry T790M/C797S/L858R): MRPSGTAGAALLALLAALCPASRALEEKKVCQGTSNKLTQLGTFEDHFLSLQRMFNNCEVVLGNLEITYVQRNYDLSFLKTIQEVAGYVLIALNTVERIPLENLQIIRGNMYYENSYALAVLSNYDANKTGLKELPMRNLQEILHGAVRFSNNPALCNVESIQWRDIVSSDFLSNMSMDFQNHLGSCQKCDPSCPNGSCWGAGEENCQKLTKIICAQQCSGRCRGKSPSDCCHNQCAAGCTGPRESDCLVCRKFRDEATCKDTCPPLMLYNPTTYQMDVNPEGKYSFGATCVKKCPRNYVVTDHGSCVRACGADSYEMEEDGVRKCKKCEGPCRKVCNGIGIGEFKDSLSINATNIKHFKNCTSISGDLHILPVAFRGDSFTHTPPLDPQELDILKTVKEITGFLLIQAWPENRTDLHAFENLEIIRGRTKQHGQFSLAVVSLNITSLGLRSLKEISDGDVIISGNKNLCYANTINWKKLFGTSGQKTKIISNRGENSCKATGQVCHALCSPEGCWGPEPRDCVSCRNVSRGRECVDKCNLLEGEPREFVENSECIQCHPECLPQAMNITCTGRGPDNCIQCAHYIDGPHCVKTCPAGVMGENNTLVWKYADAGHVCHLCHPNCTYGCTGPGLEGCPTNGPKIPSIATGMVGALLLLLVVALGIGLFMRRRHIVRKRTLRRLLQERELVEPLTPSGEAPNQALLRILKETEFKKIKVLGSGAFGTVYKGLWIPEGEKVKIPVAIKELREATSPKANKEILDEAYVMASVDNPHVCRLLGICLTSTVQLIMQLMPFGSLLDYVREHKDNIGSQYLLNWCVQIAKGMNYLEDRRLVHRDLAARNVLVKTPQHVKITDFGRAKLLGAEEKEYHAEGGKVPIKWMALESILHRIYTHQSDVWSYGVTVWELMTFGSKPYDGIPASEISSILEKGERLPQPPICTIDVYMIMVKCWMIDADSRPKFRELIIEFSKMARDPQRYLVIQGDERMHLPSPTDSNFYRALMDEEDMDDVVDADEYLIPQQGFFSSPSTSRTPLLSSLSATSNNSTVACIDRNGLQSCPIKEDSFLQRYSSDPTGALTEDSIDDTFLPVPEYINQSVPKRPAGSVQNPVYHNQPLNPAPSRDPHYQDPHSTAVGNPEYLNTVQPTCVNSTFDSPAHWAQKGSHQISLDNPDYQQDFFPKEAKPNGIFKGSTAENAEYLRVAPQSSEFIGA
Method: as §1
Plates were incubated for 72 hours at 37° C. After treatment with compounds, 25 μl/well CellTiter-Glo 2.0 reagent (Promega #G9243) were added and plates were incubated for 10 min at RT and luminescence was quantified according to the manufacturer's protocol.

T1 sequence (P00533 712-979 L858R limits assumed): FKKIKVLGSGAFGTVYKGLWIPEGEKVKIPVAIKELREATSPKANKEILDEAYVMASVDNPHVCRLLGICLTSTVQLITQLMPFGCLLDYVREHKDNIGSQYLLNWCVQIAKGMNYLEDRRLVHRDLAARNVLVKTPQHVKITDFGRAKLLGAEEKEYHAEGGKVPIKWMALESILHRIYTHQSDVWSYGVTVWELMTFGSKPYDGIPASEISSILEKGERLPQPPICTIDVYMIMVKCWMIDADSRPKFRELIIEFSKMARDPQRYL

Structure (SMILES): O=C(Nc1nccs1)C(c1ncn2c1C[C@@H](F)C2)n1cc2c(Cl)cc(-c3ccc(N4CCOCC4)cc3)c(Cl)c2n1 (stereo partly drawn) [Example 1, 2-[4,7-Dichloro-6-(4-morpholinophenyl)indazol-2-yl]-2-[(6R)-6-fluoro-6,7-dihydro-5H-pyrrolo[1,2-c]imidazol-1-yl]-N-thiazol-2-yl-acetamide]
increase of the residence time of osimertinib ([1]; global fitting of the kinetic data, osimertinib in presence of the allosteric inhibitor): around 120 fold
reaction of osimertinib with the EGFR kinase domain (L858R) in presence of the allosteric inhibitor ([1]; stopped-flow fluorescence): reacts faster
IC50 (EGFR^L858R): 16 nM
IC50 (EGFR WT [2]): ~2000 nM
hepatocyte CLint at 1 μM ([3]; human): 3.5 µL/min/1e6 cells
hepatocyte CLint at 1 μM ([3]; mouse): 16 µL/min/1e6 cells
IC50 (EGFR^L858R/T790M): 7 nM

Structure (SMILES): Cc1c(-c2ccc(N3CCOCC3)cc2)cc(C(F)F)c2cn(C(C(=O)Nc3nccs3)c3ncn4c3C[C@@H](F)C4)nc12 (stereo partly drawn) [Example 2, 2-[4-(Difluoromethyl)-7-methyl-6-(4-morpholinophenyl)indazol-2-yl]-2-[(6R)-6-fluoro-6,7-dihydro-5H-pyrrolo[1,2-c]imidazol-1-yl]-N-thiazol-2-yl-acetamide]
hepatocyte CLint at 1 μM ([3]; human): 6.1 µL/min/1e6 cells
hepatocyte CLint at 1 μM ([3]; mouse): 21 µL/min/1e6 cells

Structure (SMILES): O=C(Nc1nccs1)C(c1ncn2c1CCC2)n1cc2c(F)cc(C#Cc3ccc(CN4CCC(O)CC4)cc3)cc2n1 (stereo not shown) [Example 4, 2-(6,7-Dihydro-5H-pyrrolo[1,2-c]imidazol-1-yl)-2-(4-fluoro-6-((4-((4-hydroxypiperidin-1-yl)methyl)phenyl)ethynyl)-2H-indazol-2-yl)-N-(thiazol-2-yl)acetamide]
GI50 [5]: 800 nM

Structure (SMILES): O=C(Nc1nccs1)C(c1cc(F)ccc1O)N1Cc2ccc(-c3ccc(N4CCNCC4)cc3)cc2C1=O (stereo not shown) [JBJ-04-125-02, reference compound]
GI50 ([8]; 72 hours, first value of IC50/IC90): 30 nM
IC90 ([8]; read-out: Viability IC90 L858R/T790M/C797S, 72 hours, second value of IC50/IC90): 40 nM

Now from value to molecule, other results behind:

hepatocyte CLint at 1 μM ([3]; human): 5.9 µL/min/1e6 cells
hepatocyte CLint at 1 μM ([3]; mouse): 25 µL/min/1e6 cells
Structure (SMILES): Cc1c(-c2ccc(N3CCOCC3)cc2)cc(C(F)F)c2cn(C(C(=O)Nc3nccs3)c3ncn4c3CCC43CC3)nc12 (stereo not shown) [Example 3, 2-[4-(Difluoromethyl)-7-methyl-6-(4-morpholinophenyl)indazol-2-yl]-2-spiro[6,7-dihydropyrrol[1,2-c]imidazole-5,1′-cyclopropane]-1-yl-N-thiazol-2-yl-acetamide]
changes in body weight [4]: No significant changes in body weight

hepatocyte CLint at 1 μM ([3]; human): 2.4 µL/min/1e6 cells
hepatocyte CLint at 1 μM ([3]; mouse): 36 µL/min/1e6 cells
Structure (SMILES): Cc1c(C#Cc2ccc(CN3CCC(CO)CC3)cc2)cc(C(F)F)c2cn(C(C(=O)Nc3nccs3)c3ncn4c3CCC4)nc12 (stereo not shown) [Example 5, 2-[4-(Difluoromethyl)-6-[2-[4-[[4-(hydroxymethyl)-1-piperidyl]methyl]phenyl]ethynyl]-7-methyl-indazol-2-yl]-2-(6,7-dihydro-5H-pyrrolo[1,2-c]imidazol-1-yl)-N-thiazol-2-yl-acetamide]

IC50 (EGFR^L858R): 16 nM
IC50 (EGFR WT [2]): 545 nM
hepatocyte CLint at 1 μM ([3]; human): 1 µL/min/1e6 cells
hepatocyte CLint at 1 μM ([3]; mouse): 25 µL/min/1e6 cells
IC50 (EGFR WT [7]): 577 nM
IC50 (EGFR^L858R/T790M): 8 nM
Structure (SMILES): Cc1c(C#Cc2ccc(CN3CCC(CO)CC3)cc2)cc(C(F)F)c2cn(C(C(=O)Nc3nccs3)c3ncn4c3CCC43CC3)nc12 (stereo not shown) [Example 6]
changes in body weight [6]: No significant changes in body weight
changes in body weight [4]: No significant changes in body weight
